≈ marks a conversion by molar mass, not a printed value. *1 amine or outer side, *2 acyl side, *3 side chain or, on linkers, in order; H or OH if unused. Where a SMILES comes first, the peptide text is derived from it. Bridges are numbered along the chain shown (N, C = ends). [ ]: non-standard residue; d: D form. The star is where a group is joined. X1 = O=C(NC(=O)[C@H](Cc1cnc[nH]1)N[*:1])[C@@H](Cc1cnc[nH]1)C(=O)[*:2]; C20 diacid = O=C(O)CCCCCCCCCCCCCCCCCCC(=O)*; γGlu = O=C(O)[C@H](CCC(=O)[*:2])N[*:1]
Assays:
[1] = Agonist activity at human AMY3R (CT+RAMP3) expressed in Hollex1 cells incubated for 3 hrs by luminescence assay; type: cell-based; conditions: Hollex1, 3 h
[2] = Agonist activity at human calcitonin receptor expressed in BHK570 cells assessed as increase in intracellular cAMP concentration incubated for 3 hrs in absence of albumin by CRE luciferase reporter gene assay; type: cell-based; conditions: BHK570, 3 h
Homo sapiens [3] = organism: Homo sapiens; test: Ratio of EC50 for human calcitonin receptor expressed in BHK570 cells to EC50 for human AMY3R (CT+RAMP3) expressed in Hollex1 cells; type: cell-based
Rattus norvegicus [4] = organism: Rattus norvegicus; test: Ratio of EC50 for rat calcitonin receptor expressed in BHK-13 cells to EC50 for rat AMY3R (CT+RAMP3) expressed in tk-ts13 cells; type: cell-based
[5] = Displacement of [125I]-amylin from human AMY3R (CTR+RAMP3) expressed in BHK-13 cells measured after 120 mins by scintillation proximity assay; type: cell-based
[6] = Displacement of [125I]-calcitonin from human calcitonin receptor expressed in tk-ts 13 cells measured after 120 mins by scintillation proximity assay; type: cell-based; conditions: tk-ts13
[7] = Displacement of [125I]-amylin from rat AMY3R (CTR+RAMP3) expressed in BHK-13 cells measured after 120 mins by scintillation proximity assay; type: cell-based
[8] = Displacement of [125I]-calcitonin from rat calcitonin receptor expressed in tk-ts 13 cells measured after 120 mins by scintillation proximity assay; type: cell-based; conditions: tk-ts13
Rattus norvegicus [9] = organism: Rattus norvegicus; test: Ratio of IC50 for displacement of [125I]-calcitonin from rat calcitonin receptor expressed in tk-ts 13 cells to IC50 for displacement of [125I]-amylin from rat AMY3R (CTR+RAMP3) expressed in BHK-13 cells; type: cell-based
[10] = Solubility of the compound in lactate at pH 3 by UPLC analysis; type: physicochemical; conditions: lactate buffer
[11] = Solubility of the compound in lactate at pH 4 by UPLC analysis; type: physicochemical; conditions: lactate buffer
Insulin (Homo sapiens) [12] = biological target: Insulin (Homo sapiens) (UniProt P01308); test: Effect on insulin (unknown origin) amyloid fibril formation assessed as lag time in glycyl-glycine buffer at pH 4 measured after 45 hrs by thioflavin-T fluorescence assay
Insulin (Homo sapiens), sequence (P01308 whole entry): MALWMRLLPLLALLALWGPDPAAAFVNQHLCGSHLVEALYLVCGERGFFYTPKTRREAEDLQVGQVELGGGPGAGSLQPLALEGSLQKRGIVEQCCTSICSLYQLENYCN

Insulin (Homo sapiens) [13] = biological target: Insulin (Homo sapiens) (UniProt P01308); test: Effect on insulin (unknown origin) amyloid fibril formation assessed as peptide recovery in glycyl-glycine buffer at pH 4 measured after 45 hrs by thioflavin-T fluorescence assay relative to control; parameters: concentration or dose not given beside the values
Rattus norvegicus [14] = test: Reduction in food intake in Sprague-Dawley rat at 3 nmol/kg, sc administered as single dose measured upto 24 hrs relative to control; type: functional; parameters: scale not given: the % may be the effect or the level left; conditions: time hrs <=24
Rattus norvegicus [15] = test: Reduction in food intake in Sprague-Dawley rat at 3 nmol/kg, sc administered as single dose measured after 24 to 48 hrs relative to control; type: functional; parameters: scale not given: the % may be the effect or the level left; conditions: time 24-48 hrs
[16] = Agonist activity at rat AMY3R (CT+RAMP3) expressed in tk-ts13 cells assessed as increase in intracellular cAMP level incuabted for 25 mins by CRE luciferase reporter gene assay; type: cell-based; conditions: tk-ts13, 25 min
[17] = Agonist activity at rat calcitonin receptor expressed in BHK-13 cells assessed as increase in intracellular cAMP concentration incubated for 25 mins by CRE luciferase reporter gene assay; type: cell-based; conditions: BHK-13, 25 min
[18] = Solubility of the compound in lactate at pH 5 by UPLC analysis; type: physicochemical; conditions: lactate buffer
[19] = Solubility of the compound in bis-tris propane at pH 6 by UPLC analysis; type: physicochemical; conditions: bis-tris propane buffer
[20] = Solubility of the compound in bis-tris propane at pH 6.5 by UPLC analysis; type: physicochemical; conditions: bis-tris propane buffer
[21] = Solubility of the compound in bis-tris propane at pH 7 by UPLC analysis; type: physicochemical; conditions: bis-tris propane buffer
[22] = Solubility of the compound in bis-tris propane at pH 7.5 by UPLC analysis; type: physicochemical; conditions: bis-tris propane buffer
[23] = Solubility of the compound in bis-tris propane at pH 8 by UPLC analysis; type: physicochemical; conditions: bis-tris propane buffer
Homo sapiens [24] = organism: Homo sapiens; test: Ratio of IC50 for displacement of [125I]-calcitonin from human calcitonin receptor expressed in tk-ts 13 cells to IC50 for displacement of [125I]-amylin from human AMY3R (CTR+RAMP3) expressed in BHK-13 cells; type: cell-based

CC[C@H](C)[C@H](NC(=O)[C@@H]1CCCN1C(=O)CNC(=O)[C@H](Cc1ccccc1)NC(=O)[C@H](CC(N)=O)NC(=O)[C@H](CC(N)=O)NC(=O)[C@H](CO)NC(=O)[C@H](CO)NC(=O)[C@H](Cc1c[nH]cn1)NC(=O)[C@H](CCCNC(=N)N)NC(=O)[C@H](CC(C)C)NC(=O)[C@H](Cc1ccccc1)NC(=O)[C@H](CCC(=O)O)NC(=O)[C@H](C)NC(=O)[C@H](CC(C)C)NC(=O)[C@H](CCCNC(=N)N)NC(=O)[C@H](CCC(N)=O)NC(=O)[C@@H](NC(=O)[C@H](C)NC(=O)[C@@H]1CSSC[C@H](NC(=O)[C@H](CCCCN)NC(=O)CC[C@H](NC(=O)CCCCCCCCCCCCCCCCCCC(=O)O)C(=O)O)C(=O)N[C@@H](CC(N)=O)C(=O)N[C@@H]([C@@H](C)O)C(=O)N[C@@H](C)C(=O)N[C@@H]([C@@H](C)O)C(=O)N1)[C@@H](C)O)C(=O)N[C@@H](CC(C)C)C(=O)N1CCC[C@H]1C(=O)N1CCC[C@H]1C(=O)N[C@H](C(=O)N[C@@H](CC(N)=O)C(=O)N[C@H](C(=O)NCC(=O)N[C@@H](CO)C(=O)N[C@@H](CC(N)=O)C(=O)N[C@H](C(=O)N[C@@H](Cc1ccc(O)cc1)C(N)=O)[C@@H](C)O)C(C)C)[C@@H](C)O ({C20 diacid-γGlu}-KCNTATCATQRLAEFLRHSSNNFGPILPPTNVGSNTY-NH2; disulfide 2-7)
EC50 [1]: 0.1 nM | EC50 [2]: 0.447 nM | Ratio EC50 (Homo sapiens [3]): 4 | Ratio EC50 (Rattus norvegicus [4]): 0.5 | IC50 [5]: 0.35 nM | IC50 [6]: 0.811 nM | IC50 [7]: 0.532 nM | IC50 [8]: 2.06 nM | Ratio IC50 (Rattus norvegicus [9]): 4 | solubility [10]: 200 µM (≈ 895 µg/mL) | solubility [11]: 200 µM (≈ 895 µg/mL) | TIME (Insulin (Homo sapiens) [12]): 45 h | Activity (Insulin (Homo sapiens) [13]): 85% | Activity (Rattus norvegicus [14]): 30% | Activity (Rattus norvegicus [15]): 8%

CC[C@H](C)[C@H](NC(=O)[C@@H]1CCCN1C(=O)CNC(=O)[C@H](Cc1ccccc1)NC(=O)[C@H](CC(N)=O)NC(=O)[C@H](CC(N)=O)NC(=O)[C@H](CO)NC(=O)[C@H](CO)NC(=O)[C@H](Cc1cnc[nH]1)NC(=O)[C@H](Cc1cnc[nH]1)NC(=O)[C@H](CC(C)C)NC(=O)[C@H](Cc1ccccc1)NC(=O)[C@H](CCC(=O)O)NC(=O)[C@H](C)NC(=O)[C@H](CC(C)C)NC(=O)[C@H](CCCNC(=N)N)NC(=O)[C@H](CCC(N)=O)NC(=O)[C@@H](NC(=O)[C@H](C)NC(=O)[C@@H]1CSSC[C@H](NC(=O)[C@H](Cc2cnc[nH]2)NC(=O)[C@H](Cc2cnc[nH]2)C(=O)NC(=O)[C@H](Cc2cnc[nH]2)NC(=O)CC[C@H](NC(=O)CCCCCCCCCCCCCCCCCCC(=O)O)C(=O)O)C(=O)N[C@@H](CCCNC(=N)N)C(=O)N[C@@H]([C@@H](C)O)C(=O)N[C@@H](C)C(=O)N[C@@H]([C@@H](C)O)C(=O)N1)[C@@H](C)O)C(=O)N[C@@H](CC(C)C)C(=O)N1CCC[C@H]1C(=O)N1CCC[C@H]1C(=O)N[C@H](C(=O)N[C@@H](CC(N)=O)C(=O)N[C@H](C(=O)NCC(=O)N[C@@H](CO)C(=O)N[C@@H](CC(N)=O)C(=O)N[C@H](C(=O)N[C@@H](Cc1ccc(O)cc1)C(N)=O)[C@@H](C)O)C(C)C)[C@@H](C)O ({C20 diacid-γGlu}-[X1]HCRTATCATQRLAEFLHHSSNNFGPILPPTNVGSNTY-NH2; disulfide 3-8)
EC50 [1]: 0.096 nM | EC50 [2]: 0.157 nM | Ratio EC50 (Homo sapiens [3]): 2 | EC50 [16]: 0.261 nM | EC50 [17]: 1.29 nM | Ratio EC50 (Rattus norvegicus [4]): 5 | solubility [10]: 200 µM (≈ 962 µg/mL) | solubility [11]: 200 µM (≈ 962 µg/mL) | solubility [18]: 200 µM (≈ 962 µg/mL) | solubility [19]: 200 µM (≈ 962 µg/mL) | solubility [20]: 57 µM (≈ 274 µg/mL) | solubility [21]: 2 µM (≈ 9.62 µg/mL) | solubility [22]: 1 µM (≈ 4.81 µg/mL) | solubility [23]: 3 µM (≈ 14.4 µg/mL) | TIME (Insulin (Homo sapiens) [12]): 3 h | Activity (Insulin (Homo sapiens) [13]): 14% | Activity (Rattus norvegicus [14]): 26% | Activity (Rattus norvegicus [15]): 5%

CC(C)C[C@H](NC(=O)[C@H](CCCCN)NC(=O)CNC(=O)[C@H](CC(C)C)NC(=O)[C@@H](NC(=O)[C@@H]1CSSC[C@H](N)C(=O)N[C@@H](CO)C(=O)N[C@@H](CC(N)=O)C(=O)N[C@@H](CC(C)C)C(=O)N[C@@H](CO)C(=O)N[C@@H]([C@@H](C)O)C(=O)N1)C(C)C)C(=O)N[C@@H](CO)C(=O)N[C@@H](CCC(N)=O)C(=O)N[C@@H](CCC(=O)O)C(=O)N[C@@H](CC(C)C)C(=O)N[C@@H](Cc1c[nH]cn1)C(=O)N[C@@H](CCCCN)C(=O)N[C@@H](CC(C)C)C(=O)N[C@@H](CCC(N)=O)C(=O)N[C@H](C(=O)N[C@@H](Cc1ccc(O)cc1)C(=O)N1CCC[C@H]1C(=O)N[C@@H](CCCNC(=N)N)C(=O)N[C@H](C(=O)N[C@@H](CC(N)=O)C(=O)N[C@H](C(=O)NCC(=O)N[C@@H](CO)C(=O)NCC(=O)N[C@H](C(=O)N1CCC[C@H]1C(N)=O)[C@@H](C)O)[C@@H](C)O)[C@@H](C)O)[C@@H](C)O [CALCITONIN SALMON]
EC50 [1]: 0.002 nM | EC50 [2]: 0.003 nM | Ratio EC50 (Homo sapiens [3]): 2 | EC50 [16]: 0.001 nM | EC50 [17]: 0.0001 nM | IC50 [6]: 0.066 nM | Ratio IC50 (Homo sapiens [24]): 1 | IC50 [7]: 0.028 nM | IC50 [8]: 0.03 nM | Ratio IC50 (Rattus norvegicus [9]): 1

Reference: ChEMBL document CHEMBL4842340, “Development of Cagrilintide, a Long-Acting Amylin Analogue” (J Med Chem, 2021)
